# Key:
# Experiment in all cases: radiometric filter-binding kinase assay, Kinase HotSpot
# Conditions in all cases: compound 0.5 µM; ATP 10 µM
# LRRK2 (human) = LRRK2 (human) (UniProt Q5S007)
# TBK1 (human) = TBK1 (human) (UniProt Q9UHD2)
# ABL1 (human) = ABL1 (human) (UniProt P00519)
# MET (human) = MET (human) (UniProt P08581)
# BRSK2 (human) = BRSK2 (human) (UniProt Q8IWQ3)
# CDK2 CCNE1 (human) = CDK2 CCNE1 (human) (UniProt P24941+P24864)
# FYN (human) = FYN (human) (UniProt P06241)
# EPHB3 (human) = EPHB3 (human) (UniProt P54753)
# PRKCB2 (human) = PRKCB2 (human) (UniProt P05771)
# MINK1 (human) = MINK1 (human) (UniProt Q8N4C8)
# MAPKAPK3 (human) = MAPKAPK3 (human) (UniProt Q16644)
# BLK (human) = BLK (human) (UniProt P51451)
# RPS6KA2 KD1 KD2 (human) = RPS6KA2 KD1 KD2 (human) (UniProt Q15349)
# CAMK2B (human) = CAMK2B (human) (UniProt Q13554)
# SRPK3 (human) = SRPK3 (human) (UniProt Q9UPE1)
# DAPK3 (human) = DAPK3 (human) (UniProt O43293)
# NEK2 (human) = NEK2 (human) (UniProt P51955)
# MAPK13 (human) = MAPK13 (human) (UniProt O15264)
# TSSK1B (human) = TSSK1B (human) (UniProt Q9BXA7)
# MAPK9 (human) = MAPK9 (human) (UniProt P45984)
# STK10 (human) = STK10 (human) (UniProt O94804)
# DCLK2 (human) = DCLK2 (human) (UniProt Q8N568)
# AURKA (human) = AURKA (human) (UniProt O14965)
# NTRK1 (human) = NTRK1 (human) (UniProt P04629)
# IGF1R (human) = IGF1R (human) (UniProt P08069)
# MAPK10 (human) = MAPK10 (human) (UniProt P53779)
# RIPK2 (human) = RIPK2 (human) (UniProt O43353)
# PTK2 (human) = PTK2 (human) (UniProt Q05397)
# CDK2 CCNA2 (human) = CDK2 CCNA2 (human) (UniProt P24941+P20248)
# TTK (human) = TTK (human) (UniProt P33981)
# CSNK1G2 (human) = CSNK1G2 (human) (UniProt P78368)
# FES (human) = FES (human) (UniProt P07332)
# TYRO3 (human) = TYRO3 (human) (UniProt Q06418)
# ROS1 (human) = ROS1 (human) (UniProt P08922)
# CLK1 (human) = CLK1 (human) (UniProt P49759)
# ROCK1 (human) = ROCK1 (human) (UniProt Q13464)
# STK39 (human) = STK39 (human) (UniProt Q9UEW8)
# RPS6KA4 KD2 (human) = RPS6KA4 KD2 (human) (UniProt O75676)
# NEK2 (human), sequence (P51955 whole entry, looked up): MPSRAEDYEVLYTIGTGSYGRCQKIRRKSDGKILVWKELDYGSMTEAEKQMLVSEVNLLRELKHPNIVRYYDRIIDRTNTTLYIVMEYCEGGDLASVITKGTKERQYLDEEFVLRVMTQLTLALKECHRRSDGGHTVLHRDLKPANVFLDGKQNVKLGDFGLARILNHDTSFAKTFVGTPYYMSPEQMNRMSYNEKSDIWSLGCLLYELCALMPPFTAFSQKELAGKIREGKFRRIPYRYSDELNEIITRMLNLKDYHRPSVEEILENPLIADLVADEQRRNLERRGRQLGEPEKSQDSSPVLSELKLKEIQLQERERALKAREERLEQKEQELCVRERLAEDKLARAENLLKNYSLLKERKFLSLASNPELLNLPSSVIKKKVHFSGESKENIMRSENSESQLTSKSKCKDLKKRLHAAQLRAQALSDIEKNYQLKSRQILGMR
# MAPK13 (human), sequence (O15264 whole entry, looked up): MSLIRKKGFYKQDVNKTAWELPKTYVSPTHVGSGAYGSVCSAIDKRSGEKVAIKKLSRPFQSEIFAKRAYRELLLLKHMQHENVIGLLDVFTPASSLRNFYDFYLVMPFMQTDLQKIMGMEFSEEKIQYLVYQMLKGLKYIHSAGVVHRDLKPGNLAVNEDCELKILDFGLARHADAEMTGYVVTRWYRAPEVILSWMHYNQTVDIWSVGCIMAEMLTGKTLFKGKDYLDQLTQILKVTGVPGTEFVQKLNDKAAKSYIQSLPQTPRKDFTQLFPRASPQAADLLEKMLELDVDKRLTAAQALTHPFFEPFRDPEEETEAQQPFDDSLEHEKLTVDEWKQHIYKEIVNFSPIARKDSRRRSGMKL
# STK10 (human), sequence (O94804 whole entry, looked up): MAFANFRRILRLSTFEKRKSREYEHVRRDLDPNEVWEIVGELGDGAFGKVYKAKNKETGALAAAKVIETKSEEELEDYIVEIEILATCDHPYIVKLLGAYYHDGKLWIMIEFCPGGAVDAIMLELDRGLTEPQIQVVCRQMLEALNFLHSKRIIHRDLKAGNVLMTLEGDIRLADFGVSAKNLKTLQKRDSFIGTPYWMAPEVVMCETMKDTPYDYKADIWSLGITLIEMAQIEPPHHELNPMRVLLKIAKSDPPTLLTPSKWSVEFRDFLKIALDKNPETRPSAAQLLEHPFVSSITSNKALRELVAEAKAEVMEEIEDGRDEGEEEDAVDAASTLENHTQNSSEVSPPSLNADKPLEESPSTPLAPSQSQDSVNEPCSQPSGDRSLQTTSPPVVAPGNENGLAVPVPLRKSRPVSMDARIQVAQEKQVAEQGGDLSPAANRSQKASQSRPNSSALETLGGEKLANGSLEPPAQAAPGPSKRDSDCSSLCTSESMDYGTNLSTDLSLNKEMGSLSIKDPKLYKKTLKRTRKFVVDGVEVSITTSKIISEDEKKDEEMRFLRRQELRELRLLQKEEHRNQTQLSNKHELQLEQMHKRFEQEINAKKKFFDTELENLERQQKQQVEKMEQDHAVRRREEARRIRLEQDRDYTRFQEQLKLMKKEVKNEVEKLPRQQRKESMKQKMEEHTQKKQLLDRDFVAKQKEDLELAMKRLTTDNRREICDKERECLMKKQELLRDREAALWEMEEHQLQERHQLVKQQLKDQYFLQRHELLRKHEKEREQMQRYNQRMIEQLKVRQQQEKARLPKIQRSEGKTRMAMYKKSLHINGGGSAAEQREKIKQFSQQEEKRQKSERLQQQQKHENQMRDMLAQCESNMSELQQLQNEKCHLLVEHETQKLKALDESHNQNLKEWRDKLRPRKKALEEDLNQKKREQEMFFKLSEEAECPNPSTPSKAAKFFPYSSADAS
# BRSK2 (human), sequence (Q8IWQ3 whole entry, looked up): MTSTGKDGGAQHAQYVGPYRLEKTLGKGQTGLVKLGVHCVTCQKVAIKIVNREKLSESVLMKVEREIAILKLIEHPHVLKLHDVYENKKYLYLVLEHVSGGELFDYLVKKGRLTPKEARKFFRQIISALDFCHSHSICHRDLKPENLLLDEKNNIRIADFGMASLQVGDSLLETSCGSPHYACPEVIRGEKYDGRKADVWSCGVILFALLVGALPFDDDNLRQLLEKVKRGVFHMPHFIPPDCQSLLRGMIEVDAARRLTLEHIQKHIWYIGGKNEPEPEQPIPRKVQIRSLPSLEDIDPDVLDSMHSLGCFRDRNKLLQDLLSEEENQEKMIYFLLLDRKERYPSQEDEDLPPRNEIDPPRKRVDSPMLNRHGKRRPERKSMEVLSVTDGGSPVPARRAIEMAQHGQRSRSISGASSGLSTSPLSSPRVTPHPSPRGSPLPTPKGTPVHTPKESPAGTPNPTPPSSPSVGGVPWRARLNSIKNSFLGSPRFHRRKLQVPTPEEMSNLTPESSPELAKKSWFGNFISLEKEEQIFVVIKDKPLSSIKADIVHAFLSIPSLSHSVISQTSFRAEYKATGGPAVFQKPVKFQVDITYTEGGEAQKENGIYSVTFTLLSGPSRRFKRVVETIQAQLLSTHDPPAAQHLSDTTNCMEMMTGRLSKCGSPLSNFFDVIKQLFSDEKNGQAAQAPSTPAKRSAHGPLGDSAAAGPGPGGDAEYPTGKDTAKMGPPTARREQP
# PTK2 (human), sequence (Q05397 whole entry, looked up): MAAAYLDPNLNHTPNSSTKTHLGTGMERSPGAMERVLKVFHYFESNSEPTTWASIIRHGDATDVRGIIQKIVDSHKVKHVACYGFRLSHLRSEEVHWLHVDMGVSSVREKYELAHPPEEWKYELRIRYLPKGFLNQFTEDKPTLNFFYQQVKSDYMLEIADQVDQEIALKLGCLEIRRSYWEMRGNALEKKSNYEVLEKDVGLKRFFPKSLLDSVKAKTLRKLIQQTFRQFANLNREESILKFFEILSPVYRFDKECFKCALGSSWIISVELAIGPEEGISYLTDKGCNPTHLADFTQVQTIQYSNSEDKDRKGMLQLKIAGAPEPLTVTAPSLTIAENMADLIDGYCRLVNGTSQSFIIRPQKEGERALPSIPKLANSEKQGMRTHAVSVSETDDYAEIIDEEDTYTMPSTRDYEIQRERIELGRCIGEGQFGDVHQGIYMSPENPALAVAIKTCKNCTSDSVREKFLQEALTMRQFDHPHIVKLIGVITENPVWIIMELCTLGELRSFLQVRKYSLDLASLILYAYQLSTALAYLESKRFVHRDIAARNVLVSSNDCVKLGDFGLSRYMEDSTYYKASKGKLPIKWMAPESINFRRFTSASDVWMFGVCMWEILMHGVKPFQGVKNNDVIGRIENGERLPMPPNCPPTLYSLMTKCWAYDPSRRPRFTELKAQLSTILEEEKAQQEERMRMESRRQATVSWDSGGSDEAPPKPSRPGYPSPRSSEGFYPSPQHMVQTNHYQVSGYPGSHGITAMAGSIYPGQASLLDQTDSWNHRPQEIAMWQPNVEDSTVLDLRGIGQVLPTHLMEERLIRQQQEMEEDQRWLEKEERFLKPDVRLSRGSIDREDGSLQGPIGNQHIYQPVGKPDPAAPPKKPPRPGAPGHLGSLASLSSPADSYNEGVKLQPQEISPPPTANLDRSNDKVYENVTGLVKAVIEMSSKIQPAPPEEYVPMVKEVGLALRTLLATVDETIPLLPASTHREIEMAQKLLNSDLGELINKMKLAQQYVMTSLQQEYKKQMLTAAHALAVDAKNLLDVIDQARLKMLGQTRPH
# MET (human), sequence (P08581 whole entry, looked up): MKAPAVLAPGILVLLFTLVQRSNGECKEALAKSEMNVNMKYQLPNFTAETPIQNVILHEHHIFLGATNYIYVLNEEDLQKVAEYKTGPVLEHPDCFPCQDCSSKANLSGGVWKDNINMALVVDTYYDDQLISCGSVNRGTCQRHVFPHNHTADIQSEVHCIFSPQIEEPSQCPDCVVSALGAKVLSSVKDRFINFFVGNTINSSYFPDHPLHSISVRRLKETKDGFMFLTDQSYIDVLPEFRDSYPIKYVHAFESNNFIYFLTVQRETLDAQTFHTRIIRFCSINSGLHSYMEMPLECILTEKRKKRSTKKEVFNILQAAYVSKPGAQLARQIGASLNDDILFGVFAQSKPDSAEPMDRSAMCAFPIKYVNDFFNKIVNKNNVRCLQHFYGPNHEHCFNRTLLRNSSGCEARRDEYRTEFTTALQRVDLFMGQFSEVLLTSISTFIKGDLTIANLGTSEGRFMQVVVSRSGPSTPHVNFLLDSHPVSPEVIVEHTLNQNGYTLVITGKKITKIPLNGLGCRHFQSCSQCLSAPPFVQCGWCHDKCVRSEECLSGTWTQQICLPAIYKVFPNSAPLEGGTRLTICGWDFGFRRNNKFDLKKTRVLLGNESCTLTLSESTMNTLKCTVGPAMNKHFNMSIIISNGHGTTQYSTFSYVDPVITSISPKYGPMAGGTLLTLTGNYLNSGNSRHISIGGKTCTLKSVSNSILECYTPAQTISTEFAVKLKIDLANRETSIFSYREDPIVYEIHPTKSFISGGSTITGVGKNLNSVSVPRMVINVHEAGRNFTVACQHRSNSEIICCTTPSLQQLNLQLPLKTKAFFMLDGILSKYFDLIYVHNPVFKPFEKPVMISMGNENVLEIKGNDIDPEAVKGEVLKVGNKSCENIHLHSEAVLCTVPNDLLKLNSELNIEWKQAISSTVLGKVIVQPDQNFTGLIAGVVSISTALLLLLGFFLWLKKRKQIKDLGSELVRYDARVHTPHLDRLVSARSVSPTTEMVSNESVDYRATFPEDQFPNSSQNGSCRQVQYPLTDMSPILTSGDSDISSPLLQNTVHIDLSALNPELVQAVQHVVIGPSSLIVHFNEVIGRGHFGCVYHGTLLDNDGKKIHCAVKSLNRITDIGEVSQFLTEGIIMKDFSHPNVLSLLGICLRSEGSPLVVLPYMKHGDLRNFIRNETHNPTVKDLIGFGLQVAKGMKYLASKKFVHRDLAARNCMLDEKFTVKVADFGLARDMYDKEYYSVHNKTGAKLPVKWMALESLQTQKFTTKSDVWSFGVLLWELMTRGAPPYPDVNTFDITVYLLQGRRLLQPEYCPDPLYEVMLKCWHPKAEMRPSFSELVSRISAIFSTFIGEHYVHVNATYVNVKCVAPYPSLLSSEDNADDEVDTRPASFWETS
Structure (SMILES),residual activity (LRRK2 (human)) [%],residual activity (TBK1 (human)) [%],residual activity (ABL1 (human)) [%],residual activity (MET (human)) [%],residual activity (BRSK2 (human)) [%],residual activity (CDK2 CCNE1 (human)) [%],residual activity (FYN (human)) [%],residual activity (EPHB3 (human)) [%],residual activity (PRKCB2 (human)) [%],residual activity (MINK1 (human)) [%],residual activity (MAPKAPK3 (human)) [%],residual activity (BLK (human)) [%],residual activity (RPS6KA2 KD1 KD2 (human)) [%],residual activity (CAMK2B (human)) [%],residual activity (SRPK3 (human)) [%],residual activity (DAPK3 (human)) [%],residual activity (NEK2 (human)) [%],residual activity (MAPK13 (human)) [%],residual activity (TSSK1B (human)) [%],residual activity (MAPK9 (human)) [%],further results
CCN(CC)C(=O)c1ccc(Nc2nc(OCC3CCCCC3)c3nc[nH]c3n2)cc1,2.21,25.4,67.1,85.3,82.5,76.5,62.6,99.5,95,88.5,103,60.9,30.9,97.6,68.1,98.4,91.4,95.3,15.3,60.8,residual activity (STK10 (human)): 57.3%; residual activity (DCLK2 (human)): 97.3%; residual activity (AURKA (human)): 3.03%; residual activity (NTRK1 (human)): 81.4%; residual activity (IGF1R (human)): 28.4%; residual activity (MAPK10 (human)): 108%; residual activity (RIPK2 (human)): 97.2%; residual activity (PTK2 (human)): 76.9%; residual activity (CDK2 CCNA2 (human)): 55.8%; residual activity (TTK (human)): 47.8%; residual activity (CSNK1G2 (human)): 59.8%; residual activity (FES (human)): 63.2%; residual activity (TYRO3 (human)): 90.4%; residual activity (ROS1 (human)): 69.9%; residual activity (CLK1 (human)): 74.1%; residual activity (ROCK1 (human)): 54.9%; residual activity (STK39 (human)): 91.5%; residual activity (RPS6KA4 KD2 (human)): 79.8%
CC(=O)c1ccc(N2CCOCC2)cc1O,96.1,99.1,98.9,122,100,94.8,103,92.3,97.9,94.3,105,102,98.6,105,104,98.1,81.3,104,107,105,residual activity (STK10 (human)): 101%; residual activity (DCLK2 (human)): 101%; residual activity (AURKA (human)): 132%; residual activity (NTRK1 (human)): 97.2%; residual activity (IGF1R (human)): 106%; residual activity (MAPK10 (human)): 78.4%; residual activity (RIPK2 (human)): 103%; residual activity (PTK2 (human)): 107%; residual activity (CDK2 CCNA2 (human)): 99.3%; residual activity (TTK (human)): 103%; residual activity (CSNK1G2 (human)): 102%; residual activity (FES (human)): 100%; residual activity (TYRO3 (human)): 89.1%; residual activity (ROS1 (human)): 102%; residual activity (CLK1 (human)): 110%; residual activity (ROCK1 (human)): 92.9%; residual activity (STK39 (human)): 90.9%; residual activity (RPS6KA4 KD2 (human)): 103%
CC#CC(=O)Nc1cc2c(Nc3ccc(F)c(Cl)c3)ncnc2cn1,92.3,105,97.8,96.3,93.3,98.1,95.8,85.4,99.5,91.9,105,21.3,105,99.6,101,97.8,103,105,104,91.8,residual activity (STK10 (human)): 72.6%; residual activity (DCLK2 (human)): 102%; residual activity (AURKA (human)): 96.5%; residual activity (NTRK1 (human)): 98.5%; residual activity (IGF1R (human)): 100%; residual activity (MAPK10 (human)): 85.4%; residual activity (RIPK2 (human)): 38.7%; residual activity (PTK2 (human)): 102%; residual activity (CDK2 CCNA2 (human)): 97.8%; residual activity (TTK (human)): 104%; residual activity (CSNK1G2 (human)): 94.9%; residual activity (FES (human)): 99.4%; residual activity (TYRO3 (human)): 100%; residual activity (ROS1 (human)): 91.3%; residual activity (CLK1 (human)): 82.5%; residual activity (ROCK1 (human)): 96.2%; residual activity (STK39 (human)): 91.3%; residual activity (RPS6KA4 KD2 (human)): 100%
Nc1cccc(-c2cc3c(Oc4cccc(O)c4)ncnc3[nH]2)c1,93.4,92.9,5.5,110,86.9,90,7.92,78.8,97.5,34.7,97.6,38.1,91.5,101,101,94,98,104,91.1,111,residual activity (STK10 (human)): 45.8%; residual activity (DCLK2 (human)): 89%; residual activity (AURKA (human)): 78.2%; residual activity (NTRK1 (human)): 90.5%; residual activity (IGF1R (human)): 99.5%; residual activity (MAPK10 (human)): 89.4%; residual activity (RIPK2 (human)): 30.5%; residual activity (PTK2 (human)): 88.4%; residual activity (CDK2 CCNA2 (human)): 88.5%; residual activity (TTK (human)): 104%; residual activity (CSNK1G2 (human)): 84.9%; residual activity (FES (human)): 73.8%; residual activity (TYRO3 (human)): 52.1%; residual activity (ROS1 (human)): 39.7%; residual activity (CLK1 (human)): 93%; residual activity (ROCK1 (human)): 94.1%; residual activity (STK39 (human)): 119%; residual activity (RPS6KA4 KD2 (human)): 103%
Cc1ccc(S(=O)(=O)/C=C/C#N)cc1,115,83.9,98.7,94.7,99.4,89.2,95.4,104,104,111,97.8,103,100,106,104,97.4,101,92.2,97.4,102,residual activity (STK10 (human)): 90.6%; residual activity (DCLK2 (human)): 96.1%; residual activity (AURKA (human)): 111%; residual activity (NTRK1 (human)): 90.1%; residual activity (IGF1R (human)): 93.5%; residual activity (MAPK10 (human)): 107%; residual activity (RIPK2 (human)): 93.8%; residual activity (PTK2 (human)): 104%; residual activity (CDK2 CCNA2 (human)): 98%; residual activity (TTK (human)): 107%; residual activity (CSNK1G2 (human)): 98.6%; residual activity (FES (human)): 100%; residual activity (TYRO3 (human)): 99.8%; residual activity (ROS1 (human)): 94.1%; residual activity (CLK1 (human)): 107%; residual activity (ROCK1 (human)): 93.2%; residual activity (STK39 (human)): 83.7%; residual activity (RPS6KA4 KD2 (human)): 82.8%

# — the kinase profiling compilation of Christmann-Franck et al. (2016)
